Measured values published in ChEMBL document CHEMBL1949661, “Hit to lead evaluation of 1,2,3-triazolo[4,5-b]pyridines as PIM kinase inhibitors” (Bioorg Med Chem Lett, 2012).

Experiments:
[1] = Metabolic stability in Sprague-Dawley rat liver microsomes assessed as compound remaining at 1 uM after 15 mins; assay type: ADME, Microsome; conditions: read-out: Stability
[2] = Half life in BALB/C mouse plasma at 5 mg/kg, iv; assay type: ADME, organism-based; set-up: dose 5 mg/kg, route intravenous
[3] = Metabolic stability in CD-1 mouse liver microsomes assessed as compound remaining at 1 uM after 15 mins; assay type: ADME, Microsome; conditions: read-out: Stability
[4] = Plasma clearance in BALB/C mouse at 5 mg/kg, iv; assay type: ADME, organism-based; set-up: dose 5 mg/kg, route intravenous
[5] = Metabolic stability in human liver microsomes assessed as compound remaining at 1 uM after 15 mins; assay type: ADME, Microsome; conditions: read-out: Stability

COc1cc(NCC2CCNCC2)nc2c1nnn2-c1cccc(OC(F)(F)F)c1
remaining at […], 1 µM [1]: 91%
half-life [2]: 57 min
remaining at […], 1 µM [3]: 80%
clearance [4]: 54.7 mL/min/kg
remaining at […], 1 µM [5]: 97%
